Results on 35 molecules are retold here after ChEMBL document CHEMBL1142025 (Bioorg Med Chem Lett, 2005).

Assay [1] has as its target T1, Human immunodeficiency virus type 1 protease (Human immunodeficiency virus 1, UniProt Q72874). Put plainly: Binding affinity against human immunodeficiency virus (HIV) protease. It is filed as single protein, human immuno deficiency virus protease.
Assay [2] is described as follows: Inhibitory concentration against cathepsin.
Assay [3] has as its target Pepsin A (Homo sapiens, UniProt P0DJD9). The experiment in a line: Inhibitory concentration against pepsin.
In assay [4] the target is T1, Human immunodeficiency virus type 1 protease. Put plainly: Inhibitory concentration against human immunodeficiency virus (HIV) protease. Details: species or system human immuno deficiency virus protease.
The target of assay [5] is T2, Renin (Homo sapiens, UniProt P00797).
T2 sequence (P00797 whole entry): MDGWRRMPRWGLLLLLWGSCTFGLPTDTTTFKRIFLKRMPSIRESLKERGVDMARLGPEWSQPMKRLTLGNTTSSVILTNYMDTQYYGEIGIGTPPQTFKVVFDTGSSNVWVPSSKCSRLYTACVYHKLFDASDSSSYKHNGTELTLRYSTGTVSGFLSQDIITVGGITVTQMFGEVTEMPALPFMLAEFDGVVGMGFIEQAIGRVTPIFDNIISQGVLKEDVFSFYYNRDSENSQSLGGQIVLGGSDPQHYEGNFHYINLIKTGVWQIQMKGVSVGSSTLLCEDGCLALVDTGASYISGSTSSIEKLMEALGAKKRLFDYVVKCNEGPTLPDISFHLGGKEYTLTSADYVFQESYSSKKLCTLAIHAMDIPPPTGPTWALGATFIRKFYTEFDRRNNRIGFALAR
The experiment in a line: Inhibitory concentration against renin.

The structures appear in SMILES notation.

Pepsin A, sequence (P0DJD9 whole entry): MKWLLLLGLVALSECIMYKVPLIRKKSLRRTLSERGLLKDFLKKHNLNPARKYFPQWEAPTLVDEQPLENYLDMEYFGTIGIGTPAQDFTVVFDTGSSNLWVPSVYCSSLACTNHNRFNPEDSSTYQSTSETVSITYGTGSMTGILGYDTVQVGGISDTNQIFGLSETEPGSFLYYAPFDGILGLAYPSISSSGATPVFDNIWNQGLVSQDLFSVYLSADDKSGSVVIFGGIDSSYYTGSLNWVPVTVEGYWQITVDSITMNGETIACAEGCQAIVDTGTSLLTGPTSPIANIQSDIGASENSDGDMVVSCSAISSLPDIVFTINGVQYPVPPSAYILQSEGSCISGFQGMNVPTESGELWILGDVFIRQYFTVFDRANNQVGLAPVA

In assay [1], `Cc1ccc(S(=O)(=O)N(CC(C)C)[C@@H](CCCCNC(=O)OCc2ccccc2)C(=O)O)cc1` returned a Ki of over 250 nM. `CC(C)CN([C@@H](CCCCNC(=O)OCC1c2ccccc2-c2ccccc21)C(=O)O)S(=O)(=O)c1ccc(F)cc1` yielded a Ki in assay [1] of 17.4 nM. For the molecule `COC(=O)[C@H](CCCCNC(=O)OC1c2ccccc2-c2ccccc21)N(CC(C)C)S(=O)(=O)c1ccc(C)cc1`, in assay [1], the inhibitory constant (Ki) is over 300 nM. On to `CC(C)CN([C@@H](CCCCNC(=O)OCC1c2ccccc2-c2ccccc21)C(=O)O)S(=O)(=O)c1ccc(N)cc1`, for which the IC50 amounted to 10300 nM in assay [2], 4100 nM in assay [3], 2.1 nM in assay [4] and 5200 nM in assay [5]. In addition, in assay [1], the inhibition constant (Ki) came out at 2.1 nM. In assay [1], `Cc1ccc(S(=O)(=O)N(CC(C)C)[C@@H](CCCCNC(=O)OC2c3ccccc3-c3ccccc32)c2nnn[nH]2)cc1` gave a Ki of over 300 nM. In assay [1], `Cc1ccc(S(=O)(=O)N(CC(C)C)[C@H](CO)CCCCNC(=O)OC2c3ccccc3-c3ccccc32)cc1` returned an inhibition constant (Ki) of 107 nM. `Cc1ccc(S(=O)(=O)N(CC2CC2)[C@@H](CCCCNC(=O)OCC2c3ccccc3-c3ccccc32)C(=O)O)cc1` had an inhibition constant Ki in assay [1] of 3.9 nM.

Regarding `Cc1ccc(S(=O)(=O)NCCC[C@H](NC(=O)OCC2c3ccccc3-c3ccccc32)C(=O)O)cc1`, the affinity in assay [1], expressed as Ki, was 26200 nM. With `Cc1ccc(S(=O)(=O)N(CC(C)C)[C@@H](CCCCNC(=O)OC2c3ccccc3-c3ccccc32)C(N)=O)cc1`, in assay [1], the inhibition constant (Ki) amounted to 107 nM.

`Cc1ccc(S(=O)(=O)N(CC(C)C)[C@@H](CCCCNC(=O)OC2c3ccccc3-c3ccccc32)C(=O)NN)cc1`: in assay [1], the Ki was 254 nM. The molecule `CC(C)CN([C@@H](CCCCNC(=O)OCC1c2ccccc2-c2ccccc21)C(=O)O)S(=O)(=O)c1cccs1` yielded a Ki in assay [1] of 42 nM. On the same count and under the same terms, with `Cc1ccc(S(=O)(=O)N(CC(C)C)[C@@H](CCCCNC(=O)OC2c3ccccc3-c3ccccc32)C(=O)O)cc1` the figure was 105 nM.

For the molecule `Cc1ccc(S(=O)(=O)N(CC(C)C)[C@@H](CCCCNC(=O)OC(C)(C)C)C(=O)O)cc1`, the Ki in assay [1] is over 250 nM. Still for that read-out and setting: the same measure for `CC(C)(C)OC(=O)NCCCC[C@H](NC(=O)OCc1ccccc1)C(=O)O`: over 100000 nM.

`Cc1ccc(S(=O)(=O)N[C@@H](CCCCNC(=O)OC(C)(C)C)C(=O)O)cc1` returned a Ki in assay [1] of over 100000 nM. Still for that read-out and setting: with `CC(C)CN([C@@H](CCCCNC(=O)OCC1c2ccccc2-c2ccccc21)C(=O)O)S(=O)(=O)c1ccc([N+](=O)[O-])cc1` the figure was 7.2 nM; with `Cc1ccc(S(=O)(=O)N(CC(C)C)[C@@H](CCNC(=O)OCC2c3ccccc3-c3ccccc32)C(=O)O)cc1`, over 250 nM; with `Cc1ccc(S(=O)(=O)N(CC(C)C)[C@@H](CCCCNC(=O)OC2c3ccccc3-c3ccccc32)C(=N)S)cc1`, 127 nM.

Regarding `Cc1ccc(S(=O)(=O)N(CC(C)C)[C@@H](CCCCCNC(=O)OCC2c3ccccc3-c3ccccc32)C(=O)O)cc1`, the Ki in assay [1] is over 250 nM. On the same count and under the same terms, the same measure for `Cc1ccc(S(=O)(=O)N(CCCC[C@H](NC(=O)OCC2c3ccccc3-c3ccccc32)C(=O)O)CC(C)C)cc1`: 2000 nM. In the case of `Cc1ccc(S(=O)(=O)N(CC(C)C)[C@@H](CCCCNC(=O)OCC2c3ccccc3-c3ccccc32)C(=O)O)cc1`, the IC50 in assay [2] was 15600 nM; in assay [3] it was 5400 nM; in assay [4], 5 nM; in assay [5], 6500 nM. The molecule also came in with an inhibitory constant (Ki) in assay [1] of 5 nM. `CC(C)CN([C@@H](CCCCNC(=O)OCC1c2ccccc2-c2ccccc21)C(=O)O)S(=O)(=O)c1ccc(C(C)(C)C)cc1`: the inhibition constant Ki in assay [1] was 257 nM. Same read-out and setting: the same measure for `CC(C)CN([C@@H](CCCCNC(=O)OCC1c2ccccc2-c2ccccc21)C(=O)O)S(=O)(=O)c1cccc2ccccc12`: 54.9 nM. Molecule `Cc1ccc(S(=O)(=O)N(CC(C)C)[C@@H](CCCCNC(=O)OC2c3ccccc3-c3ccccc32)C(=O)NO)cc1` yielded a Ki in assay [1] of 245 nM. On to `Cc1ccc(S(=O)(=O)N(CC(C)C)[C@@H](CCCCNC(=O)OC2c3ccccc3-c3ccccc32)C(=N)N)cc1`, for which the inhibition constant (Ki) in assay [1] amounted to 280 nM.

In the case of `Cc1ccc(S(=O)(=O)N(Cc2ccccc2)[C@@H](CCCCNC(=O)OCC2c3ccccc3-c3ccccc32)C(=O)O)cc1`, in assay [1], the inhibition constant Ki was 19.6 nM.

The molecule `CCC(CC)CN([C@@H](CCCCNC(=O)OCC1c2ccccc2-c2ccccc21)C(=O)O)S(=O)(=O)c1ccc(C)cc1` registered a Ki in assay [1] of 15.2 nM. The same measure, in the same setting: with `CCC(C)CN([C@@H](CCCCNC(=O)OCC1c2ccccc2-c2ccccc21)C(=O)O)S(=O)(=O)c1ccc(C)cc1` (stereo partly drawn) the figure was 13.5 nM.

In turn, `Cc1ccc(S(=O)(=O)N(CC(C)C)[C@H](C=O)CCCCNC(=O)OC2c3ccccc3-c3ccccc32)cc1` returned a Ki in assay [1] of over 300 nM.

`Cc1ccc(S(=O)(=O)N(CC2CCCC2)[C@@H](CCCCNC(=O)OCC2c3ccccc3-c3ccccc32)C(=O)O)cc1` showed a Ki in assay [1] of 5.2 nM. Same read-out and setting: the same measure for `Cc1ccc(S(=O)(=O)N(CC(C)C)[C@@H](CCCCNC(=O)CC2c3ccccc3-c3ccccc32)C(=O)O)cc1`: 89.7 nM. Same read-out and setting: the same measure for `Cc1ccc(S(=O)(=O)N(CC(C)C)[C@@H](CCCNC(=O)OCC2c3ccccc3-c3ccccc32)C(=O)O)cc1`: 180 nM; for `Cc1ccc(S(=O)(=O)N(CC(C)C)[C@@H](CNC(=O)OCC2c3ccccc3-c3ccccc32)C(=O)O)cc1`: over 250 nM. Still for that read-out and setting: the same measure for `CC(C)CN(C(=O)c1ccccc1)[C@@H](CCCCNC(=O)OCC1c2ccccc2-c2ccccc21)C(=O)O`: over 300 nM; for `Cc1ccc(S(=O)(=O)N(CC(C)C)[C@H](CN)CCCCNC(=O)OC2c3ccccc3-c3ccccc32)cc1`: over 300 nM.
